Source: patent US20170000133A1, “BENZOXABOROLE FUNGICIDES” (SYNGENTA PARTICIPATIONS AG, priority 2013, published 2017)

Tested on: Plasmopara viticola
Assay: whole plant or invertebrate
Assay type: in vivo
Conditions: foliar, read-out: disease control

Structure (SMILES) | pest or weed control at 200 ppm
COC(=O)C#CCOC(=O)c1cc2c(cc1F)COB2O [Compound 424] | ≥ 80%

Tested on: Fusarium culmorum
Assay: microbe, parasite or virus in culture
Assay type: cell-based
Conditions: read-out: disease control (inhibition of growth determined visually)

Structure (SMILES) | inhibition at 200 ppm
O=C(OCc1cccc(F)c1)c1ccc2c(c1)B(O)OC2 [Compound 375] | ≥ 80%
C=CCCOC(=O)c1cc2c(cc1F)COB2O [Compound 389] | ≥ 80%
COC(=O)C#CCOC(=O)c1cc2c(cc1F)COB2O [Compound 424] | ≥ 80%

Tested on: Pythium ultimum
Assay: Pythium ultimum / liquid culture (seedling damping off)
Assay type: cell-based
Conditions: Globisporangium ultimum; 200 ppm; potato dextrose broth, 24° C., 2-3 days after application; read-out: disease control (inhibition of growth determined photometrically)

Structure (SMILES) | inhibition at 200 ppm
O=C(OCc1cccc(F)c1)c1ccc2c(c1)B(O)OC2 [Compound 375] | ≥ 80%
C=CCCOC(=O)c1cc2c(cc1F)COB2O [Compound 389] | ≥ 80%
C=C(C)COC(=O)c1cc2c(cc1F)COB2O [Compound 402] | ≥ 80%
COC(=O)C#CCOC(=O)c1cc2c(cc1F)COB2O [Compound 424] | ≥ 80%

Tested on: Thanatephorus cucumeris (Rhizoctonia solani)
Assay: Thanatephorus cucumeris (Rhizoctonia solani) / liquid culture (foot rot, damping-off)
Assay type: cell-based
Conditions: PDB potato dextrose broth, 24° C., 3-4 days after application, read-out: disease control (inhibition of growth determined photometrically)
Procedure, shortened: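 Mycelial fragments from fresh liquid culture were suspended in potato dextrose broth and added to compound in DMSO at 200 ppm. After 3-4 days at 24 °C, growth inhibition was measured photometrically.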

Structure (SMILES) | inhibition at 200 ppm
O=C(OCc1cccc(F)c1)c1ccc2c(c1)B(O)OC2 [Compound 375] | ≥ 80%
C=CCCOC(=O)c1cc2c(cc1F)COB2O [Compound 389] | ≥ 80%
C=C(C)COC(=O)c1cc2c(cc1F)COB2O [Compound 402] | ≥ 80%
COC(=O)C#CCOC(=O)c1cc2c(cc1F)COB2O [Compound 424] | ≥ 80%

Tested on: Sclerotinia sclerotiorum
Assay: Sclerotinia sclerotiorum / liquid culture (cottony rot)
Assay type: cell-based
Conditions: PDB potato dextrose broth, 24° C., 3-4 days after application, read-out: disease control (inhibition of growth determined visually)
Protocol: 18. Sclerotinia sclerotiorum/Liquid Culture (Cottony Rot): Mycelia fragments of a newly grown liquid culture of the fungus were directly mixed into nutrient broth (PDB potato dextrose broth). After placing a (DMSO) solution of the test compounds into a microtiter plate (96-well format) the nutrient broth containing the fungal material was added. The test plates were incubated at 24° C. and the inhibition of growth was determined visually 3-4 days after application.

Structure (SMILES) | inhibition at 200 ppm
O=C(OCc1cccc(F)c1)c1ccc2c(c1)B(O)OC2 [Compound 375] | ≥ 80%
C=CCCOC(=O)c1cc2c(cc1F)COB2O [Compound 389] | ≥ 80%
COC(=O)C#CCOC(=O)c1cc2c(cc1F)COB2O [Compound 424] | ≥ 80%

Tested on: not given
Assay: not given
Conditions: not given

Structure (SMILES) | melting point
O=C(OCc1cccc(F)c1)c1ccc2c(c1)B(O)OC2 [Compound 375] | 125 to 127 °C
C=CCCOC(=O)c1cc2c(cc1F)COB2O [Compound 389] | 107 to 109 °C
COC(=O)C#CCOC(=O)c1cc2c(cc1F)COB2O [Compound 424] | 112 to 114 °C

Tested on: Glomerella lagenarium (Colletotrichum lagenarium)
Assay: Glomerella lagenarium (Colletotrichum lagenarium) / liquid culture (anthracnose)
Assay type: cell-based
Conditions: Colletotrichum orbiculare, PDB potato dextrose broth, 24° C., 3-4 days after application, read-out: disease control (inhibition of growth measured photometrically)
Procedure, shortened: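 Conidia of G. lagenarium from cryogenic storage were suspended in potato dextrose broth and added to test compound in DMSO at 200 ppm. Plates were incubated at 24° C, and growth inhibition was read photometrically 3-4 days after application.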

Structure (SMILES) | inhibition at 200 ppm
O=C(OCc1cccc(F)c1)c1ccc2c(c1)B(O)OC2 [Compound 375] | ≥ 80%
C=CCCOC(=O)c1cc2c(cc1F)COB2O [Compound 389] | ≥ 80%
COC(=O)C#CCOC(=O)c1cc2c(cc1F)COB2O [Compound 424] | ≥ 80%

Tested on: Phaeosphaeria nodorum (Septoria nodorum)
Assay: Phaeosphaeria nodorum (Septoria nodorum) / wheat / leaf disc preventative (glume blotch)
Assay type: in vivo
Conditions: Parastagonospora nodorum, foliar, wheat leaf segments cv Kanzler, inoculated 2 days after application, assessed 5-7 days after application, read-out: disease control
Protocol: 5. Phaeosphaeria nodorum (Septoria nodorum)/Wheat/Leaf Disc Preventative (Glume Blotch): Wheat leaf segments (cv) Kanzler were placed on agar in a 24-well plate and sprayed with formulated test compound diluted in water at an application rate of 200 ppm. The leaf disks were inoculated with a spore suspension of the fungus 2 days after application. The inoculated test leaf disks were incubated at 20° C. and 75% relative humidity under a light regime of 12/12 h (light/dark) in a climate cabinet and the activity of a compound was assessed as percent disease control compared to untreated when an appropriate level of disease damage appears in untreated check leaf disks (5-7 days after application).

Structure (SMILES) | pest or weed control at 200 ppm
CC(C)c1ccc(NC(=O)c2cc3c(cc2Cl)COB3O)cc1 [Compound 110] | ≥ 80%

Tested on: Botryotinia fuckeliana (Botrytis cinerea)
Assay: Botryotinia fuckeliana (Botrytis cinerea) / liquid culture (gray mould)
Assay type: cell-based
Conditions: Vogels broth, 24° C., 3-4 days after application, read-out: disease control (inhibition of growth determined photometrically)
Protocol: 10. Botryotinia fuckeliana (Botrytis cinerea)/Liquid Culture (Gray Mould): Conidia of the fungus from cryogenic storage were directly mixed into nutrient broth (Vogels broth). After placing a DMSO solution of test compound into a 96-well microtiter plate at an application rate of 200 ppm, the nutrient broth containing the fungal spores was added. The test plates were incubated at 24° C. and the inhibition of growth was determined photometrically 3-4 days after application.

Structure (SMILES) | inhibition at 200 ppm
O=C(OCc1cccc(F)c1)c1ccc2c(c1)B(O)OC2 [Compound 375] | ≥ 80%
COC(=O)C#CCOC(=O)c1cc2c(cc1F)COB2O [Compound 424] | ≥ 80%

Tested on: Puccinia recondita f. sp. tritici
Assay: Puccinia recondita f. sp. tritici / wheat / leaf disc curative (brown rust)
Assay type: in vivo
Conditions: foliar, 192 h, wheat leaf segments, applied one day after inoculation, assessed 8 dpi, read-out: disease control
Protocol: 4. Puccinia recondita f. sp. tritici/Wheat/Leaf Disc Curative (Brown Rust) Wheat leaf segments are placed on agar in multiwell plates (24-well format). The leaf disks are then inoculated with a spore suspension of the fungus. One day after inoculation the test solution is applied. After appropriate incubation the activity of a compound is assessed 8 dpi (days after inoculation) as curative fungicidal activity. Dose range: 200-22 ppm.

Structure (SMILES) | pest or weed control at 200 ppm
C=C(C)COC(=O)c1cc2c(cc1F)COB2O [Compound 402] | ≥ 80%

Tested on: Gaeumannomyces graminis
Assay: Gaeumannomyces graminis / liquid culture (take-all of cereals)
Assay type: cell-based
Conditions: PDB potato dextrose broth, 24° C., 4-5 days after application, read-out: disease control (inhibition of growth determined photometrically)
Procedure, shortened: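 Cryo-stored mycelial fragments in potato dextrose broth exposed to compound in DMSO at 200 ppm. Incubated at 24 °C; growth inhibition read photometrically 4–5 days after application.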

Structure (SMILES) | inhibition at 200 ppm
O=C(OCc1cccc(F)c1)c1ccc2c(c1)B(O)OC2 [Compound 375] | ≥ 80%
C=CCCOC(=O)c1cc2c(cc1F)COB2O [Compound 389] | ≥ 80%
C=C(C)COC(=O)c1cc2c(cc1F)COB2O [Compound 402] | ≥ 80%
COC(=O)C#CCOC(=O)c1cc2c(cc1F)COB2O [Compound 424] | ≥ 80%

Tested on: Mycosphaerella graminicola (Septoria tritici)
Assay: Mycosphaerella graminicola (Septoria tritici) / liquid culture (Septoria blotch)
Assay type: cell-based
Conditions: Zymoseptoria tritici, PDB potato dextrose broth, 24° C., 4-5 days after application, read-out: disease control (inhibition of growth determined photometrically)
Procedure, shortened: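 Conidia from cryostorage were suspended in potato dextrose broth and added to test compound in DMSO at 200 ppm in microtiter wells. Plates were incubated at 24° C and growth inhibition measured photometrically 4-5 days after application.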

Structure (SMILES) | inhibition at 200 ppm
CC(C)c1ccc(NC(=O)c2cc3c(cc2Cl)COB3O)cc1 [Compound 110] | ≥ 80%
O=C(OCc1cccc(F)c1)c1ccc2c(c1)B(O)OC2 [Compound 375] | ≥ 80%
C=CCCOC(=O)c1cc2c(cc1F)COB2O [Compound 389] | ≥ 80%
C=C(C)COC(=O)c1cc2c(cc1F)COB2O [Compound 402] | ≥ 80%
COC(=O)C#CCOC(=O)c1cc2c(cc1F)COB2O [Compound 424] | ≥ 80%

Tested on: Monographella nivalis (Microdochium nivale)
Assay: Monographella nivalis (Microdochium nivale) / liquid culture (foot rot cereals)
Assay type: cell-based
Conditions: PDB potato dextrose broth, 24° C., 4-5 days after application, read-out: disease control (inhibition of growth determined photometrically)

Structure (SMILES) | inhibition at 200 ppm
CC(C)c1ccc(NC(=O)c2cc3c(cc2Cl)COB3O)cc1 [Compound 110] | ≥ 80%
O=C(OCc1cccc(F)c1)c1ccc2c(c1)B(O)OC2 [Compound 375] | ≥ 80%
C=CCCOC(=O)c1cc2c(cc1F)COB2O [Compound 389] | ≥ 80%
C=C(C)COC(=O)c1cc2c(cc1F)COB2O [Compound 402] | ≥ 80%
COC(=O)C#CCOC(=O)c1cc2c(cc1F)COB2O [Compound 424] | ≥ 80%

Tested on: Mycosphaerella arachidis (Cercospora arachidicola)
Assay: Mycosphaerella arachidis (Cercospora arachidicola) / liquid culture (early leaf spot)
Assay type: cell-based
Conditions: PDB potato dextrose broth, 24° C., 4-5 days after application, read-out: disease control (inhibition of growth determined photometrically)
Procedure, shortened: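 Conidia from cryogenic storage mixed into potato dextrose broth and added to compound at 200 ppm in DMSO. Incubation at 24° C.; growth inhibition read photometrically 4-5 days after application.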

Structure (SMILES) | inhibition at 200 ppm
O=C(OCc1cccc(F)c1)c1ccc2c(c1)B(O)OC2 [Compound 375] | ≥ 80%
C=CCCOC(=O)c1cc2c(cc1F)COB2O [Compound 389] | ≥ 80%
C=C(C)COC(=O)c1cc2c(cc1F)COB2O [Compound 402] | ≥ 80%
COC(=O)C#CCOC(=O)c1cc2c(cc1F)COB2O [Compound 424] | ≥ 80%
